Key:
ERK5 = target: T1, ERK5 (Homo sapiens, UniProt Q13164); assay: ERK5 IMAP assay (fluorescence polarisation); type: biochemical; settings: average (e.g. geometric mean) where more than one data point; read-out: ERK5 IC50
T1 construct: made in house

[1] = test system: HA-ERK5-ΔP493 (MEK5D-activated, MEF2D-Gal4/Gal4-Luc reporter) in HEK293T cells; assay: Truncated dual-luciferase reporter assay, HEK293T forward transfection; type: cell-based; settings: Homo sapiens, HEK-293T, average where more than one data point, read-out: Truncated ERK 5 Reporter Assay
Protocol: Truncated Dual-Luciferase Reporter Assay
HEK293T and HeLa Forward Transfection
Constitutively-active, EGFP-tagged MEK5 (EGFP-MEK5D; 0.5 μg/μl), an EGFP-tagged construct containing no MEK5D (EGFP-C3; 0.5 μg/μl), and HA-tagged ERK5 with C-terminal truncation (HA-ERK5-ΔP493; 0.51 μg/μl) were diluted separately in sterile distilled water. Plasmid DNA and Lipofectamine 2000 (Invitrogen) were separately diluted in Opti-MEM growth media (reduced serum medium, Invitrogen), and incubated at room temperature for 5 min. Plasmid DNA (Tube A) and Lipofectamine 2000 (Tube B) were then combined and incubated for 20 min at room temperature to complex. Cells were then transfected by addition of 16 μl of the respective transfection mixture: 3 wells with EGFP-C3-containing (control) and 21 wells with MEK5D-containing transfection mixture (final volume, 100 μl). Cells were subsequently incubated for 4 h at 37° prior to addition of potential ERK5-inhibitory compounds.
Addition of Compounds to ERK5-Transfected HEK293T or HeLa Cells
Potential ERK5-inhibitory compounds were prepared as a 2× solution by addition of 2 μl compound (or DMSO as control) to 1 ml standard culture medium. Compounds were tested in triplicate at a concentration range of 0.003 μM, 0.01 μM, 0.03 μM, 0.1 μM, 0.3 μM and 1 μM (or 0.03 μM, 0.1 μM, 0.3 μM, 1 μM, 3 μM and 10 μM for BIX02189) by addition of 100 μl 2× solution to 100 μl transfected cells (final DMSO, 0.1% v/v). Cells were incubated for 24 h at 37° C.
Cell Lysis and Luciferase Quantification
After 24 h incubation in the absence (control) or presence of potential inhibitor, the culture medium was aspirated and cells lysed in 20 μl 1× passive lysis buffer (Dual-Luciferase Reporter Assay System, Promega) for a minimum of 15 min with agitation. Lysates were further processed immediately or stored at −80° C. Cellular inhibition of ERK5 was quantified using the Dual-Luciferase Reporter Assay System (Promega). Luciferase assay buffer/Luciferase assay substrate and Stop and Glo assay buffer/Stop and Glo substrate were prepared according to the manufacturer's instructions. Luciferase reagent (50 μl/well) was added immediately before luminescence detection using a FLUOstar Omega plate reader (BMG Labtech). Stop and Glo reagent (50 μl/well) was subsequently added, and the Renilla luciferase signal (transfection efficiency control) quantified.
The ERK5-specific signalling activity was calculated by subtraction of the EGFP-C3 luciferase signal from the EGFP-MEK5D-induced luminescence. Luminescence in the absence of potential ERK5 inhibitor (DMSO control) was taken as 100% ERK5 activity. […] Unless stated otherwise, data are mean±standard deviation of three independent experiments.

T1 sequence (Q13164 whole entry): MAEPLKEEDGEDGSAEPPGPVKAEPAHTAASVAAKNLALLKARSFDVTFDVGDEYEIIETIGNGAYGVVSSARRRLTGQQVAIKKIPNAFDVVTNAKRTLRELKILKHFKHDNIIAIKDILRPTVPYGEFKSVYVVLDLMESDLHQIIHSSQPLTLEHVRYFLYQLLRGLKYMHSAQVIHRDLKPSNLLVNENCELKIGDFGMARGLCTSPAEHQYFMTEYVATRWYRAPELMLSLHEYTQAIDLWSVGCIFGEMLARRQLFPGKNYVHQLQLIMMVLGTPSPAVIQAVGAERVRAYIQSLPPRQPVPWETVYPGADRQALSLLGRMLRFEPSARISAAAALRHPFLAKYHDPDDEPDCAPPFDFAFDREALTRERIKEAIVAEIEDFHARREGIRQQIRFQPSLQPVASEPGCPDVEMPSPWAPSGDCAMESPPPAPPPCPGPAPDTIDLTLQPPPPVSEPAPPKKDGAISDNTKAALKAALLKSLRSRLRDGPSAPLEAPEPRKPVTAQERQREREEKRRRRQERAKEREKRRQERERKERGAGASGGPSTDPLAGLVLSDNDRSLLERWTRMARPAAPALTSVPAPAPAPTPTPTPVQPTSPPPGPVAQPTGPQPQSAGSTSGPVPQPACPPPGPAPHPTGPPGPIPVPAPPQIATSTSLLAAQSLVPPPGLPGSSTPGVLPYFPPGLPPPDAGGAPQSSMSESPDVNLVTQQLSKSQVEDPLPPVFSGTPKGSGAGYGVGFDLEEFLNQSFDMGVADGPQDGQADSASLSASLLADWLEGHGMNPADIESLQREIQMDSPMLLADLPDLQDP

| IC50 (ERK5) [nM] | Structure (SMILES) | IC50 [1] [nM] |
| --- | --- | --- |
| 22 | CN(C)Cc1ccc(NC(=O)c2cc(C(=O)c3c(Cl)ccc(Cl)c3F)c[nH]2)cn1 [Example 277, 4-(3,6-Dichloro-2-fluorobenzoyl)-N-(6-((dimethylamino)methyl)pyridin-3-yl)-1H-pyrrole-2-carboxamide] | 36 |
| 11.1 | O=C(Nc1ccc(NCCN2CCCCC2)nc1)c1cc(C(=O)c2c(Cl)ccc(Cl)c2F)c[nH]1 [Example 264, 4-(3,6-Dichloro-2-fluorobenzoyl)-N-(6-((2-(piperidin-1-yl)ethyl)amino)pyridin-3-yl)-1H-pyrrole-2-carboxamide] | 142 |
| 10.2 | COc1ccc(Cl)c(C(=O)c2c[nH]c(C(=O)Nc3ccc(CC4CCN(C)CC4)nc3)c2)c1F [Example 236, 4-(6-Chloro-2-fluoro-3-methoxybenzoyl)-N-(6-((1-methylpiperidin-4-yl)methyl)pyridin-3-yl)-1H-pyrrole-2-carboxamide] | 96 |
| 12.2 | COc1ccc(Cl)c(C(=O)c2c[nH]c(C(=O)Nc3cnc(CC4CCNCC4)nc3)c2)c1F [Example 252, 4-(6-Chloro-2-fluoro-3-methoxybenzoyl)-N-(2-(piperidin-4-ylmethyl)pyrimidin-5-yl)-1H-pyrrole-2-carboxamide] | 627 |
| 7.1 | O=C(Nc1ccc(NCCN2CCCC2)nc1)c1cc(C(=O)c2c(Cl)ccc(Cl)c2F)c[nH]1 [Example 275, 4-(3,6-Dichloro-2-fluorobenzoyl)-N-(6-((2-(pyrrolidin-1-yl)ethyl)amino)pyridin-3-yl)-1H-pyrrole-2-carboxamide] | 107 |
| 15.3 | CN(C)CCNc1ncc(NC(=O)c2cc(C(=O)c3c(Cl)ccc(Cl)c3F)c[nH]2)cn1 [Example 99, 4-(3,6-Dichloro-2-fluorobenzoyl)-N-(2-((2-(dimethylamino)ethyl)amino)pyrimidin-5-yl)-1H-pyrrole-2-carboxamide] | 122 |
| 10.4 | O=C(Nc1cnc(NCCN2CCCCC2)nc1)c1cc(C(=O)c2c(Cl)ccc(Cl)c2F)c[nH]1 [Example 104, 4-(3,6-Dichloro-2-fluorobenzoyl)-N-(2-((2-(piperidin-1-yl)ethyl)amino)pyrimidin-5-yl)-1H-pyrrole-2-carboxamide] | 90 |

Second part, the compound before the results:

| Structure (SMILES) | IC50 (ERK5) [nM] | IC50 [1] [nM] |
| --- | --- | --- |
| COCCN(C)Cc1ccc(NC(=O)c2cc(C(=O)c3c(Cl)ccc(Cl)c3F)c[nH]2)cn1 [Example 278] | 34 | 40 |
| O=C(Nc1ccc(CN2CCC(O)CC2)nc1)c1cc(C(=O)c2c(Cl)ccc(Cl)c2F)c[nH]1 [Example 282] | 6.7 | 44 |
| O=C(Nc1cnc(NCCN2CCCC2)nc1)c1cc(C(=O)c2c(Cl)ccc(Cl)c2F)c[nH]1 [Example 102, 4-(3,6-Dichloro-2-fluorobenzoyl)-N-(2-((2-(pyrrolidin-1-yl)ethyl)amino)pyrimidin-5-yl)-1H-pyrrole-2-carboxamide] | 16.6 | 85 |
| O=C(Nc1cnc(NCCN2CCOCC2)nc1)c1cc(C(=O)c2c(Cl)ccc(Cl)c2F)c[nH]1 [Example 103, 4-(3,6-Dichloro-2-fluorobenzoyl)-N-(2-((2-morpholinoethyl)amino)pyrimidin-5-yl)-1H-pyrrole-2-carboxamide] | 36.8 | 135 |
| O=C(Nc1ccc(NCCN2CCOCC2)nc1)c1cc(C(=O)c2c(Cl)ccc(Cl)c2F)c[nH]1 [Example 276, 4-(3,6-Dichloro-2-fluorobenzoyl)-N-(6-((2-morpholinoethyl)amino)pyridin-3-yl)-1H-pyrrole-2-carboxamide] | 58.1 | 125 |
| CCN(CC)CCNc1ccc(NC(=O)c2cc(C(=O)c3c(Cl)ccc(Cl)c3F)c[nH]2)cn1 [Example 262, 4-(3,6-Dichloro-2-fluorobenzoyl)-N-(6-((2-(diethylamino)ethyl)amino)pyridin-3-yl)-1H-pyrrole-2-carboxamide] | 18.5 | 149 |

— patent US10344017B2, “Pyrrolcarboxamide derivatives for the inhibition of ERK5” (CANCER RESEARCH TECHNOLOGY LIMITED, priority 2014, dated 2019)
